# Laboratory results: patent US20240358693A1, “METHODS OF TREATING PAIN” (Aisa Pharma, Inc., priority 2023, published 2024)
# System: participants with SSc-RP
# Assay: Scleroderma Health Assessment Questionnaire (SHAQ): disability indices and visual analog scales
# Assay type: in vivo, human
# Conditions: PP Population, Part A, SSc patients, sensitivity analysis
# Description: The standard, validated, patient reported outcome measures tool for SSc patients, the Scleroderma Health Assessment Questionnaire (SHAQ), will be used to assess the participant qualify of life. Details are attached in the Appendix. The participant quality of life will be scored, and a disability index calculated for each questionnaire completed by the patient at Screening and each in-clinic visit. The absolute change in participant quality of life from baseline to the end of each dosing period will be calculated similar to frequency data as before.
# The SHAQ includes a Raynaud's VAS, which will be reported at screening and each in-clinic visit. The absolute change in Raynaud-VAS, assessed by the participants response to the SHAQ question ‘In the past 7 days, how much have your Raynaud's interfered with your daily activities?’ at baseline and the end of each dosing period will be calculated similar to frequency data as before.
# The SHAQ is used to calculate a Disability Index to assess the participant qualify of life. The eight categories assessed by the Disability Index are 1) dressing and grooming, 2) arising, 3) eating, 4) walking, 5) hygiene, 6) reach, 7) grip, and 8) common daily activities. For each of these categories, patients report the amount of difficulty they have in performing two or three specific activities.
# There are four possible responses for the Disability Index questions: • Without any difficulty=0 • With some difficulty=1 • With much difficulty=2 • Unable to do=3. • The highest score reported by the patient for any component question of the eight categories determines the score for that category. • If a component question is left blank or the response is too ambiguous to assign a score, then the score for that category is determined by the remaining completed question(s). • If all component questions are blank or if more than one answer is given, then follow up with the respondent is required. • If the respondent's mark is between the response columns, then move it to the closest one. If it's directly between the two, move it to the higher one.
# Each of the disability items on the SHAQ has a companion aids/devices variable that is used to record what type(s) of assistance, if any, the participant uses for his/her usual activities. These variables (see below) are coded as follows: • 0=No assistance is needed. • 1=A special device is used by the patient in his/her usual activities. • 2=The patient usually needs help from another person. • 3=The patient usually needs BOTH a special device AND help from another person.
# The scoring variables and scoring rules permit the computation of two disability indices, the Standard Disability Index and the Alternative Disability Index.
# This question results in a new set of category scores that are computed by adjusting the score for each category, if necessary, based on the patient's use of an aid or device or assistance for that category. If either devices and/or help from another person are checked for a category, the score is set to “2”, unless the score is already “3” (i.e., scores of “0” or “1” are increased to “2”). For example, if the highest score for the dressing category is “1”, and the patient says they use a device for dressing, the computed category score would be “2”. The sum of the computed categories scores is then calculated and divided by the number of categories answered. This gives a score in the 0 to 3 range.
# The aid and device variables are not used to calculate the alternative disability index; it is calculated by adding the scores for each of the categories and dividing by the number of categories answered. This gives a score in the 0 to 3 range.
# The standard, validated, patient reported outcome measures tool for SSc patients, the SHAQ, was collected at the time points specified in the study schedules (FIG. 2 and FIGS. 4A and 4B) to assess the participant's quality of life. The SHAQ included a Raynaud's VAS that will also be reported separately.
# [1] = Day 12 vs baseline, Subject 01-110 Day 12 score excluded
# [2] = In-Clinic Visit (Day 12), Subject 01-110 Day 12 score excluded
smiles,measurement,setting,value
COCCOC(=O)C1=C(C)NC(C)=C(C(=O)OC/C=C/c2ccccc2)C1c1cccc([N+](=O)[O-])c1 (stereo not drawn) [Pooled Cilnidipine],"SHAQ Visual Analogue Scale - Raynaud’s, Change from Baseline, Min",Day 12 vs baseline,−2.40
same,"SHAQ Visual Analogue Scale - Raynaud’s, Change from Baseline, Q1",Day 12 vs baseline,−1.050
same,"SHAQ Visual Analogue Scale - Raynaud’s, Change from Baseline, Q3",Day 12 vs baseline,0.350
same,"SHAQ Visual Analogue Scale - Raynaud’s, Percent Change from Baseline, Max",Day 12 vs baseline,136.4%
same,"SHAQ Visual Analogue Scale - Raynaud’s, Percent Change from Baseline, Mean",Day 12 vs baseline,−18.62%
same,"SHAQ Visual Analogue Scale - Raynaud’s, Percent Change from Baseline, Median",Day 12 vs baseline,−33.33%
same,"SHAQ Visual Analogue Scale - Raynaud’s, Percent Change from Baseline, Min",Day 12 vs baseline,−100.0%
same,"SHAQ Visual Analogue Scale - Raynaud’s, Percent Change from Baseline, Q1",Day 12 vs baseline,−68.57%
same,"SHAQ Visual Analogue Scale - Raynaud’s, Percent Change from Baseline, Q3",Day 12 vs baseline,−2.27%
same,"SHAQ Visual Analogue Scale - Breathing Problems, Change from Baseline, Max",[1],0.60
same,"SHAQ Visual Analogue Scale - Breathing Problems, Change from Baseline, Mean",[1],−0.388
same,"SHAQ Visual Analogue Scale - Breathing Problems, Change from Baseline, Median",[1],0.000
same,"SHAQ Visual Analogue Scale - Breathing Problems, Change from Baseline, Min",[1],−2.00
same,"SHAQ Visual Analogue Scale - Breathing Problems, Change from Baseline, Q1",[1],−1.000
same,"SHAQ Visual Analogue Scale - Breathing Problems, Change from Baseline, Q3",[1],0.150
same,"SHAQ Visual Analogue Scale - Breathing Problems, Percent Change from Baseline, Max",[1],150.0%
same,"SHAQ Visual Analogue Scale - Breathing Problems, Percent Change from Baseline, Mean",[1],−0.22%
same,"SHAQ Visual Analogue Scale - Breathing Problems, Percent Change from Baseline, Median",[1],−16.00%
same,"SHAQ Visual Analogue Scale - Breathing Problems, Percent Change from Baseline, Min",[1],−100.0%
same,"SHAQ Visual Analogue Scale - Breathing Problems, Percent Change from Baseline, Q1",[1],−66.67%
same,"SHAQ Visual Analogue Scale - Breathing Problems, Percent Change from Baseline, Q3",[1],31.58%
same,"SHAQ Alternative Disability Index, Max",In-Clinic Visit (Day 12),1.25
same,"SHAQ Alternative Disability Index, Mean",In-Clinic Visit (Day 12),0.391
same,"SHAQ Alternative Disability Index, Median",In-Clinic Visit (Day 12),0.188
same,"SHAQ Alternative Disability Index, Min",In-Clinic Visit (Day 12),0.00
same,"SHAQ Alternative Disability Index, Q1",In-Clinic Visit (Day 12),0.000
same,"SHAQ Alternative Disability Index, Q3",In-Clinic Visit (Day 12),0.750
same,"SHAQ Visual Analogue Scale - Finger Ulcers, Max",In-Clinic Visit (Day 12),1.90
same,"SHAQ Visual Analogue Scale - Finger Ulcers, Mean",In-Clinic Visit (Day 12),0.463
same,"SHAQ Visual Analogue Scale - Finger Ulcers, Median",In-Clinic Visit (Day 12),0.000
same,"SHAQ Visual Analogue Scale - Finger Ulcers, Min",In-Clinic Visit (Day 12),0.00
same,"SHAQ Visual Analogue Scale - Finger Ulcers, Q1",In-Clinic Visit (Day 12),0.000
same,"SHAQ Visual Analogue Scale - Finger Ulcers, Q3",In-Clinic Visit (Day 12),0.900
same,"SHAQ Visual Analogue Scale - Intestinal Problems, Max",In-Clinic Visit (Day 12),3.80
same,"SHAQ Visual Analogue Scale - Intestinal Problems, Mean",In-Clinic Visit (Day 12),0.975
same,"SHAQ Visual Analogue Scale - Intestinal Problems, Median",In-Clinic Visit (Day 12),0.300
same,"SHAQ Visual Analogue Scale - Intestinal Problems, Min",In-Clinic Visit (Day 12),0.00
same,"SHAQ Visual Analogue Scale - Intestinal Problems, Q1",In-Clinic Visit (Day 12),0.000
same,"SHAQ Visual Analogue Scale - Intestinal Problems, Q3",In-Clinic Visit (Day 12),1.700
same,"SHAQ Visual Analogue Scale - Overall Disease Severity, Max",In-Clinic Visit (Day 12),5.20
same,"SHAQ Visual Analogue Scale - Overall Disease Severity, Mean",In-Clinic Visit (Day 12),1.475
same,"SHAQ Visual Analogue Scale - Overall Disease Severity, Median",In-Clinic Visit (Day 12),1.300
same,"SHAQ Visual Analogue Scale - Overall Disease Severity, Min",In-Clinic Visit (Day 12),0.00
same,"SHAQ Visual Analogue Scale - Overall Disease Severity, Q1",In-Clinic Visit (Day 12),0.350
same,"SHAQ Visual Analogue Scale - Overall Disease Severity, Q3",In-Clinic Visit (Day 12),1.650
same,"SHAQ Visual Analogue Scale - Pain, Max",In-Clinic Visit (Day 12),4.30
same,"SHAQ Visual Analogue Scale - Pain, Mean",In-Clinic Visit (Day 12),1.875
same,"SHAQ Visual Analogue Scale - Pain, Median",In-Clinic Visit (Day 12),1.550
same,"SHAQ Visual Analogue Scale - Pain, Min",In-Clinic Visit (Day 12),0.00
same,"SHAQ Visual Analogue Scale - Pain, Q1",In-Clinic Visit (Day 12),0.550
same,"SHAQ Visual Analogue Scale - Pain, Q3",In-Clinic Visit (Day 12),3.250
same,"SHAQ Visual Analogue Scale - Raynaud’s, Max",In-Clinic Visit (Day 12),4.40
same,"SHAQ Visual Analogue Scale - Raynaud’s, Mean",In-Clinic Visit (Day 12),1.900
same,"SHAQ Visual Analogue Scale - Raynaud’s, Median",In-Clinic Visit (Day 12),1.250
same,"SHAQ Visual Analogue Scale - Raynaud’s, Min",In-Clinic Visit (Day 12),0.00
same,"SHAQ Visual Analogue Scale - Raynaud’s, Q1",In-Clinic Visit (Day 12),0.700
same,"SHAQ Visual Analogue Scale - Raynaud’s, Q3",In-Clinic Visit (Day 12),3.450
same,"SHAQ Visual Analogue Scale - Breathing Problems, Max",[2],6.30
same,"SHAQ Visual Analogue Scale - Breathing Problems, Mean",[2],1.213
same,"SHAQ Visual Analogue Scale - Breathing Problems, Median",[2],0.200
same,"SHAQ Visual Analogue Scale - Breathing Problems, Min",[2],0.00
same,"SHAQ Visual Analogue Scale - Breathing Problems, Q1",[2],0.000
same,"SHAQ Visual Analogue Scale - Breathing Problems, Q3",[2],1.500
